Where a SMILES comes first, the peptide text is derived from it.
Tested on: HCV IRES
Test: HCV IRES reporter FACS assay (GFP expression ratio, intein-expressed cyclic peptides)
Assay type: cell-based, Hepatitis C virus
Settings: ratio at least 1.20 = significant activity
Text: [The source words this procedure for another variant and says it was used here with some conditions changed.] Cells producing libraries of cyclic 3-mers and 4-mers (i.e., libraries of cyclic peptides that contain 3 or 4 amino acid residues) were constructed using methods identical to those of Kinsella et al (J Biol. Chem. 2002 277:37512-8), except different oligonucleotides were used for library construction. Clones from this library were screened in an assay shown in FIG. 2 to identify IRES-inhibitory compounds.
In summary, separate cyclic 3-mer and cyclic 4-mer libraries were constructed such that each peptide of the library contained a fixed Ser, Thr or Cys residue (at position 1) and the remaining residues were randomized. For library construction, degenerate oligonucleotides of sequence 5′-[…](AGC/ACC/TGC)(NNK)2 or 3 TGCATCAGCGGCGACAG-3′ were annealed to the primer 5′-[…]-3′ and extended using the Expand PCR kit (Roche Molecular Biochemicals). The double-stranded DNA insert was digested and inserted into the BclI/DrdI sites of DnaBO-e-BFP (ACUC). The plasmid libraries were electroporated into ElectroMAX DH 10B competent E. coli (Invitrogen) for amplification on LB+amp agar medium. […] Expression of the intein is detected by detecting BFP expression. Expression of the intein (and the cyclic peptide produced by the intein) is suppressible by addition of exogenous doxycycline. The amino acid sequence of the junctions of the intein scaffold used in making the 3-mer library is Val-His-Asn-X3 or 4-Cys-Ile-Ser, where X3 or 4 are three or four contiguous amino acids.
Infectious retroviral particles were produced by transfection of 15 µg of each library (as described in Swift et al, (1999). Current Protocols in Immunology Vol. 10.17C, pp. 1-17, Freeman, N.Y.) into approximately 5×10^6 Phoenix-A packaging cells. Each resulting library of retroviral particles was then used to infect 5×10^6 BJAB-S3A11 reporter cells and a FACS based selection was carried out to isolate cells with reduced HCV-IRES reporter output.
In detail, referring to FIG. 2, the cells used in the assay contained an IRES-dependent reporter system. […]. Also present in the cells is a control reporter system for assaying the activity of 5′ cap-dependent translation (the mechanism by which most cellular proteins are normally translated). The control reporter system contains a CMV promoter that drives the transcription of an RNA containing 5′ cap-dependent UTR, operably linked to an RNA encoding RFP (red fluorescent protein). Translation of RFP is dependent on the activity of the 5′ cap-dependent UTR.
Cells containing both the cyclic compound library and the reporter systems described above were first screened for survival upon exposure to diptheria toxin, and then screened by FACS to identify cells that had reduced GFP expression, as compared to RFP expression. Cells were expanded and replica-plated and grown in the presence or absence of dox (100 ng/ml) for four days. Plates were stimulated with IL-4 and GFP expression (relative to RFP) was monitored by flow cytometry. The IRES-inhibitory activity of a peptide is evaluated by calculating the ratio of the geometric mean of GFP expression of peptide positive cells (“peptide pos+” cells i.e., cells not contacted with dox) to the geometric mean of GFP expression of peptide negative cells (“peptide pos−” cells i.e., cells contacted with dox).
Cyclic peptides assigned higher scores have a greater IRES-inhibitory activity.
The number shown in parentheses after each of the amino acid sequences is the IRES-inhibitory activity ratio, as discussed above.

[1] = BJAB-S3A11 reporter cells, +/- dox 100 ng/ml four days, library intein junction Val-His-Asn-X1X2X3-Cys-Ile-Ser
[2] = 3-mers from mutant intein scaffold, junction Val-His-Asn-X1X2X3-Trp-Ile-Ser

| SMILES | IRES-inhibitory activity ratio (geometric mean GFP expression, peptide positive cells / peptide negative cells) [1] | IRES-inhibitory activity ratio (geometric mean GFP expression, peptide positive cells / peptide negative cells) [2] | other results |
| --- | --- | --- | --- |
| O=C1N[C@@H](Cc2c[nH]c3ccccc23)C(=O)N[C@@H](Cc2c[nH]c3ccccc23)C(=O)N[C@H]1CO [cyclo-SWW, cyclo[SWW]] (cyclo(Ser-Trp-Trp)) | 2.37 |  |  |
| CSCC[C@@H]1NC(=O)[C@H]([C@@H](C)O)NC(=O)[C@H](C(C)C)NC1=O [cyclo-TMV, cyclo[TMV]] (cyclo(Met-Val-Thr)) | 1.56 |  |  |
| NC(=O)CC[C@@H]1NC(=O)[C@H](CO)NC(=O)[C@H](Cc2c[nH]c3ccccc23)NC1=O [cyclo-SQW, cyclo[SQW]] (cyclo(Gln-Trp-Ser)) |  | 2.20 |  |
| CSCC[C@@H]1NC(=O)[C@H](Cc2c[nH]c3ccccc23)NC(=O)[C@H](CO)NC1=O [cyclo-SWM, cyclo[SWM]] (cyclo(Met-Ser-Trp)) | 1.22 |  |  |
| O=C(O)CC[C@@H]1NC(=O)[C@H](CO)NC(=O)[C@H](Cc2c[nH]c3ccccc23)NC1=O [cyclo-SEW, cyclo[SEW]] (cyclo(Glu-Trp-Ser)) |  | 2.00 |  |
| CC(C)[C@@H]1NC(=O)[C@H](Cc2cnc[nH]2)NC(=O)[C@H](CO)NC1=O [cyclo-SHV, cyclo[SHV]] (cyclo(His-Val-Ser)) |  |  | IRES-inhibitory activity ratio (geometric mean GFP expression, peptide positive cells / peptide negative cells) (3-mers from mutant intein scaffold, junction Val-His-Tyr-X1X2X3-Cys-Ile-Ser): 1.91 |
| O=C(O)C[C@@H]1NC(=O)[C@H](CO)NC(=O)[C@H](Cc2c[nH]c3ccccc23)NC1=O [cyclo-SDW, cyclo[SDW]] (cyclo(Asp-Trp-Ser)) |  | 1.85 |  |
